The source of these data is ChEMBL document CHEMBL5365491, “Synthesis and anti-tumor activities in human leukemia-derived cells of polyenylpyrroles with a methyl group at the conjugated polyene terminus” (Bioorg Med Chem Lett, 2023).

Format in all cases: functional, cell-based
For assay [1], the system named is THP-1. Briefly: Growth inhibition of human THP-1 cells measured after 72 hrs by CCK8 assay. The settings on record: THP-1, 72 h. For orientation: Tetrazolium assays rely on reduction of a dye to a coloured formazan, in cell work by metabolically active cells.
Assay [2] deals with CCRF-CEM. Briefly: Antitumor activity against human CCRF-CEM cells assessed as cell killing activity.
In assay [3] the test system is TF-1. Nature of the assay: Growth inhibition of human TF-1 cells measured after 72 hrs by CCK8 assay. The settings on record: TF-1, 72 h.
The subject of assay [4] is K562. Nature of the assay: Growth inhibition of human K562 cells measured after 72 hrs by CCK8 assay. The settings on record: K562, 72 h.
For assay [5], the system named is Raji. Briefly: Growth inhibition of human Raji cells measured after 72 hrs by CCK8 assay.
Assay [6] has as its system THP-1. Nature of the assay: Antitumor activity against human THP-1 cells assessed as inhibition in cell killing activity.
Assay [7] deals with TF-1. Briefly: Antitumor activity against human TF-1 cells assessed as inhibition in cell killing activity.
Assay [8] concerns CCRF-CEM. Briefly: Growth inhibition of human CCRF-CEM cells measured after 72 hrs by CCK8 assay.
The test system of assay [9] is Raji. Nature of the assay: Antitumor activity against human Raji cells assessed as cell killing activity.
For assay [10], the system named is K562. Nature of the assay: Antitumor activity against human K562 cells assessed as inhibition in cell killing activity.

Where only a bound is given, the exact number is not on record here.

Take `CCOC(=O)/C=C/C=C/C=C/C=C/c1[nH]ccc1Cl`: the IC50 is 1200 nM in assay [1]; 251 nM in assay [2] (read-out: pIC50 (converted)); 230 nM in assay [3]; more than 10 µM in [4]; 10 µM in [5].

Regarding `CCOC(=O)/C=C/C=C/C=C/C=C/c1ccc[nH]1`, the values for the IC50 in assay [2] (read-out: pIC50 (converted)), in [6] and in assay [7] were 1260 nM, 770 nM and 250 nM, respectively.

`COc1cc(\C(C)=C/C=C/C=C/C=C/c2[nH]ccc2Cl)oc(=O)c1C`: the IC50 was 1580 nM in assay [2] (read-out: pIC50 (converted)) and 10 µM in assay [5].

In the case of `CCOC(=O)/C=C/C=C/C=C/C=C/c1cccn1C`, the IC50 was more than 10000 nM in assay [2] (read-out: pIC50 (converted)), 10 µM in assay [5] and 10 µM in assay [8].

Take `CCOC(=O)/C(C)=C/C=C/C=C/C=C/c1ccc[nH]1`: the IC50 in assay [2] (read-out: IC50) is 90 nM; in [2] (read-out: pIC50 (converted)) it was 79.4 nM; in assay [9], 1.6 µM; in assay [6], 98 nM; in assay [10] it was 280 nM; in assay [7] it was 92 nM.

On to `CCOC(=O)/C(C)=C/C=C/c1[nH]ccc1Cl`, for which the IC50 in assay [2] (read-out: IC50) is 8400 nM; in assay [2] (read-out: pIC50 (converted)), 7940 nM; in assay [9] it was more than 10 µM.

As for `CCOC(=O)/C(C)=C/C=C/C=C/C=C/c1[nH]ccc1Cl`, the IC50 was 63 nM in [2] (read-out: IC50); 63.1 nM in assay [2] (read-out: pIC50 (converted)); more than 10 µM in [9]; 150 nM in assay [6]; 1600 nM in assay [10]; 37 nM in assay [7].

As for `CCOC(=O)/C(C)=C/C=C/C=C/c1[nH]ccc1Cl`, the IC50 is 230 nM in [2] (read-out: IC50), 251 nM in assay [2] (read-out: pIC50 (converted)) and more than 10 µM in assay [9].

`CCOC(=O)/C(C)=C/C=C/C=C/C=C/c1cccn1C`: the results for the IC50 in [2] (read-out: IC50), in [2] (read-out: pIC50 (converted)) and in assay [9] were more than 10000 nM, more than 10000 nM and more than 10 µM, respectively.

For `COc1cc(/C=C/C=C/C=C/C=C/c2[nH]ccc2Cl)oc(=O)c1` [AUXARCONJUGATIN B], the IC50 in assay [2] (read-out: pIC50 (converted)) was 501 nM; in assay [6], 1300 nM; in assay [10], 4900 nM; in assay [7] it was 440 nM.
